# Reference: US12043600B2, “Microbiocidal compounds” (SYNGENTA CROP PROTECTION AG, priority 2018, dated 2024)
# Like-named read-outs stand apart in the source and are kept apart here.
# Assays:
# Plasmopara viticola = experiment: whole plant or invertebrate; format: in vivo; details: foliar, read-out: control of Plasmopara viticola
# [1] = system: Mycosphaerella graminicola (Septoria tritici); experiment: Mycosphaerella graminicola (Septoria tritici)/Liquid Culture (Septoria Blotch); format: cell-based; details: Zymoseptoria tritici; for inhibition of growth at 20 ppm: liquid culture, compared to untreated control; for inhibition of growth at 6 ppm: M. graminicola (B19), read-out: Disease control (%)
# Method in brief: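 Conidia from cryogenic storage mixed into potato dextrose broth and added to microtiter wells already holding DMSO solutions of test compound. Activity expressed as percentage disease control.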
# [2] = system: Mycosphaerella arachidis (Cercospora arachidicola); experiment: Mycosphaerella arachidis (Cercospora arachidicola)/Liquid Culture (Early Leaf Spot); format: cell-based; details: liquid culture, compared to untreated control
# Method in brief: (§1)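 First, the test compound in DMSO is placed in the wells. Next, potato dextrose broth seeded with conidia taken straight from cryogenic storage is added, and the culture is left to grow.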
# Phakopsora pachyrhizi = experiment: Phakopsora pachyrhizi/Soybean/Preventative (Soybean Rust); format: in vivo; details: foliar, 288 h, 200 ppm, soybean leaf disc preventative, compared to untreated control, read-out: control of Phakopsora pachyrhizi
# [3] = system: Puccinia recondita f. sp. tritici; experiment: Puccinia recondita f. sp. tritici/Wheat/Leaf Disc Curative (Brown Rust); format: in vivo; details: foliar, wheat leaf disc curative, compared to untreated control
# Description: Wheat leaf segments cv. Kanzler are placed on agar in multiwell plates (24-well format). The leaf segments are inoculated with a spore suspension of the fungus. Plates are stored in darkness at 19° C. and 75% rh. The formulated test compound diluted in water is applied 1 day after inoculation. The leaf segments are incubated at 19° C. and 75% rh under a light regime of 12 h light/12 h darkness in a climate cabinet and the activity of a compound is assessed as percent disease control compared to untreated when an appropriate level of disease damage appears in untreated check leaf segments (6-8 days after application).
# [4] = system: Monographella nivalis (Microdochium nivale); experiment: Monographella nivalis (Microdochium nivale)/Liquid Culture (Foot Rot Cereals); format: cell-based; details: liquid culture, compared to untreated control
# Method in brief: as §1
# [5] = system: Puccinia recondita f. sp. tritici; experiment: Puccinia recondita f. sp. tritici/Wheat/Leaf Disc Preventative (Brown Rust); format: in vivo; details: foliar
# [6] = system: Botryotinia fuckeliana (Botrytis cinerea); experiment: Botryotinia fuckeliana (Botrytis cinerea)/Liquid Culture (Gray Mould); format: cell-based; details: liquid culture, compared to untreated control
# Description: Conidia of the fungus from cryogenic storage are directly mixed into nutrient broth (Vogels broth). After placing a (DMSO) solution of test compound into a microtiter plate (96-well format), the nutrient broth containing the fungal spores is added.
# Phytophthora infestans = experiment: whole plant or invertebrate; format: in vivo; details: in Solanum lycopersicum, foliar, read-out: control of Phytophthora infestans
# [7] = system: Glomerella lagenarium (Colletotrichum lagenarium); experiment: Glomerella lagenarium (Colletotrichum lagenarium)/Liquid Culture (Anthracnose); format: cell-based; details: Colletotrichum orbiculare, liquid culture, compared to untreated control
# [8] = system: Magnaporthe grisea (Pyricularia oryzae); experiment: whole plant or invertebrate; format: in vivo; details: foliar, read-out: control of Magnaporthe grisea
# [9] = system: Blumeria graminis f. sp. tritici (Erysiphe graminis f. sp. tritici); experiment: Blumeria graminis f. sp. tritici/Wheat/Leaf Disc Preventative (Powdery Mildew on Wheat); format: in vivo; details: foliar, wheat leaf disc preventative, compared to untreated control
# Method in brief: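 Wheat cv. Kanzler leaf segments on agar sprayed with formulated compound, inoculated with powdery mildew 1 day later and held at 20° C, 60% rh (24 h dark, then 12 h light/12 h dark). Percent disease control versus untreated scored 6-8 days after application.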
# [10] = system: Phaeosphaeria nodorum (Septoria nodorum); experiment: Phaeosphaeria nodorum (Septoria nodorum)/Wheat/Leaf Disc Preventative (Glume Blotch); format: in vivo; details: Parastagonospora nodorum, foliar, wheat leaf disc preventative, compared to untreated control
# Method in brief: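 Wheat cv. Kanzler leaf discs on agar were sprayed with formulated compound diluted in water and inoculated with P. nodorum spores 2 days later. Discs kept at 20 °C, 75% rh, 12 h light/dark; percent disease control versus untreated scored 5–7 days after application.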
# Pyrenophora teres = experiment: Pyrenophora teres/Barley/Leaf Disc Preventative (Net Blotch); format: in vivo; details: foliar
# From the text: Barley leaf segments cv. Hasso are placed on agar in a multiwell plate (24-well format) and sprayed with the formulated test compound diluted in water. The leaf segments are inoculated with a spore suspension of the fungus 2 days after application. […] The data are presented as the percentage of disease control of each compound for the biological tests against G. lagenarium (Example B3), P. recondita preventative (Example B13), P. teres (Example B15) and M. graminicola (Example B19) as described above. The testing rates of each biological test is specifically described in table C1 below.
# [11] = wheat leaf disc preventative, compared to untreated control, read-out: control of Puccinia recondita f. sp. tritici
# [12] = P. teres (B15), read-out: Disease control (%)
# [13] = P. recondita prev (B13), read-out: Disease control (%)
SMILES,pest or weed control at 200 ppm (Plasmopara viticola) [%],inhibition of growth at 20 ppm [1] [%],inhibition of growth at 20 ppm [2] [%],melting point [°C],pest or weed control at 200 ppm (Phakopsora pachyrhizi) [%],pest or weed control at 200 ppm [3] [%],inhibition of growth at 20 ppm [4] [%],"pest or weed control at 200 ppm [5, 11] [%]",inhibition of growth at 20 ppm [6] [%],pest or weed control at 200 ppm (Phytophthora infestans) [%],inhibition of growth at 20 ppm [7] [%],pest or weed control at 200 ppm [8] [%],pest or weed control at 200 ppm [9] [%],pest or weed control at 200 ppm [10] [%],"pest or weed control at 200 ppm (Pyrenophora teres; barley leaf disc preventative, compared to untreated control, read-out: control of Pyrenophora teres) [%]",inhibition of growth at 6 ppm [1] [%],pest or weed control at 200 ppm (Pyrenophora teres; [12]) [%],"pest or weed control at 60 ppm [5, 13] [%]","pest or weed control at 200 ppm [5, 13] [%]","pest or weed control at 20 ppm (Pyrenophora teres; P. teres (B15), 20 ppm, read-out: Disease control (%)) [%]"
"CO/C=C(\Oc1cc(-n2ccc(C)n2)c(OC)cc1C)C(=O)OC [Compound E-37, methyl (Z)-3-methoxy-2-[4-methoxy-2-methyl-5-(3-methylpyrazol-1-yl)phenoxy]prop-2-enoate]",≥ 80,≥ 80,≥ 80,99 to 101,≥ 50,≥ 80,≥ 80,≥ 80,≥ 80,–,–,–,–,–,–,–,–,–,–,–
"CO/C=C(\Oc1cc(-n2ccc(C(C)C)n2)c(C)cc1C)C(=O)OC [Compound E-25, methyl (Z)-2-[5-(3-isopropylpyrazol-1-yl)-2,4-dimethyl-phenoxy]-3-methoxy-prop-2-enoate]",≥ 80,≥ 80,≥ 80,96 to 98,–,≥ 80,≥ 80,≥ 80,≥ 80,≥ 80,≥ 80,≥ 80,≥ 80,–,–,–,–,–,–,–
"CO/C=C(\Oc1cc(-n2ccc(OC(F)F)n2)ccc1C)C(=O)OC [Compound E-66, methyl (Z)-2-[5-[3-(difluoromethoxy)pyrazol-1-yl]-2-methyl-phenoxy]-3-methoxy-prop-2-enoate]",≥ 80,≥ 80,≥ 80,123 to 126,–,≥ 80,≥ 80,≥ 80,≥ 80,–,≥ 80,–,≥ 80,≥ 80,–,–,–,–,–,–
"CO/C=C(\Oc1cc(-n2ccc(OC)n2)ccc1C)C(=O)OC [Compound E-95, methyl (Z)-3-methoxy-2-[5-(3-methoxypyrazol-1-yl)-2-methyl-phenoxy]prop-2-enoate]",≥ 80,≥ 80,≥ 80,120 to 123,–,≥ 80,≥ 80,≥ 80,≥ 80,≥ 80,≥ 80,–,≥ 80,–,–,–,–,–,–,–
"CO/C=C(\Oc1cc(-n2cc(C(C)(C)C)cn2)ccc1C)C(=O)OC [Compound E-49, methyl (Z)-2-[5-(4-tert-butylpyrazol-1-yl)-2-methyl-phenoxy]-3-methoxy-prop-2-enoate]",≥ 80,≥ 80,≥ 80,–,–,≥ 80,≥ 80,≥ 80,≥ 80,≥ 80,≥ 80,≥ 80,–,≥ 80,–,–,–,–,–,–
"CO/C=C(\Oc1cc(-n2ccc(C#N)n2)ccc1C)C(=O)OC [Compound E-89, methyl (Z)-2-[5-(3-cyanopyrazol-1-yl)-2-methyl-phenoxy]-3-methoxy-prop-2-enoate]",≥ 80,≥ 80,–,–,≥ 50,–,≥ 80,≥ 80,–,–,–,–,–,–,≥ 80,–,–,–,–,–
"CO/C=C(\Oc1cc(-n2cc(Br)cn2)ccc1C)C(=O)OC [Compound E-47, methyl (Z)-2-[5-(4-bromopyrazol-1-yl)-2-methyl-phenoxy]-3-methoxy-prop-2-enoate]",≥ 80,≥ 80,≥ 80,–,≥ 50,≥ 80,≥ 80,≥ 80,≥ 80,≥ 80,≥ 80,≥ 80,≥ 80,≥ 80,–,–,–,–,–,–
CO/C=C(\Oc1cccc(-n2ncc(C3CC3)n2)c1)C(=O)OC [drawing 146],–,–,–,–,–,–,–,–,–,–,–,–,–,–,–,90,0,100,–,–
"CO/C=C(\Oc1cccc(-n2cccc2)c1)C(=O)OC [drawing 154, reference compound]",–,–,–,–,–,–,–,–,–,–,–,–,–,–,–,20,0,–,0,–
CO/C=C(\Oc1cccc(-n2ccc(C(F)(F)F)n2)c1)C(=O)OC [drawing 153],–,–,–,–,–,–,–,–,–,–,–,–,–,–,–,70,50,–,90,–
CO/C=C(\Oc1cc(-n2ncc(C3CC3)n2)ccc1C)C(=O)OC [drawing 147],–,–,–,–,–,–,–,–,–,–,–,–,–,–,–,100,–,100,–,50
CO/C=C(\Oc1cc(-n2ccc(C(F)(F)F)n2)c(F)cc1C)C(=O)OC [drawing 148],–,–,–,–,–,–,–,–,–,–,–,–,–,–,–,100,90,100,–,–
"CO/C=C(\Oc1cc(-n2cc(C)c(C)n2)ccc1C)C(=O)OC [Compound E-116, methyl (Z)-2-[5-(3,4-dimethylpyrazol-1-yl)-2-methyl-phenoxy]-3-methoxy-prop-2-enoate]",≥ 80,≥ 80,≥ 80,155 to 157,–,≥ 80,≥ 80,≥ 80,≥ 80,≥ 80,≥ 80,–,≥ 80,–,–,–,–,–,–,–
CO/C=C(\Oc1cc(-n2ccc(C(C)C)n2)ccc1C)C(=O)OC [drawing 149],–,–,–,–,–,–,–,–,–,–,–,–,–,–,–,100,0,100,–,–
"CCOc1ccn(-c2ccc(C)c(O/C(=C\OC)C(=O)OC)c2)n1 [Compound E-94, methyl (Z)-2-[5-(3-ethoxypyrazol-1-yl)-2-methyl-phenoxy]-3-methoxy-prop-2-enoate]",≥ 80,≥ 80,≥ 80,94 to 96,–,≥ 80,≥ 80,≥ 80,≥ 80,≥ 80,≥ 80,–,≥ 80,≥ 80,–,–,–,–,–,–
CO/C=C(\Oc1cc(-n2ccc(C(F)(F)F)n2)ccc1C)C(=O)OC [drawing 152],–,–,–,–,–,–,–,–,–,–,–,–,–,–,–,100,90,100,–,–
CO/C=C(\Oc1cc(-n2ccc(OC(C)C)n2)ccc1C)C(=O)OC [drawing 150],–,–,–,–,–,–,–,–,–,–,–,–,–,–,–,100,90,100,–,–
